Target: T1, ITK (Homo sapiens, UniProt Q08881)
T1 sequence (Q08881 1-620): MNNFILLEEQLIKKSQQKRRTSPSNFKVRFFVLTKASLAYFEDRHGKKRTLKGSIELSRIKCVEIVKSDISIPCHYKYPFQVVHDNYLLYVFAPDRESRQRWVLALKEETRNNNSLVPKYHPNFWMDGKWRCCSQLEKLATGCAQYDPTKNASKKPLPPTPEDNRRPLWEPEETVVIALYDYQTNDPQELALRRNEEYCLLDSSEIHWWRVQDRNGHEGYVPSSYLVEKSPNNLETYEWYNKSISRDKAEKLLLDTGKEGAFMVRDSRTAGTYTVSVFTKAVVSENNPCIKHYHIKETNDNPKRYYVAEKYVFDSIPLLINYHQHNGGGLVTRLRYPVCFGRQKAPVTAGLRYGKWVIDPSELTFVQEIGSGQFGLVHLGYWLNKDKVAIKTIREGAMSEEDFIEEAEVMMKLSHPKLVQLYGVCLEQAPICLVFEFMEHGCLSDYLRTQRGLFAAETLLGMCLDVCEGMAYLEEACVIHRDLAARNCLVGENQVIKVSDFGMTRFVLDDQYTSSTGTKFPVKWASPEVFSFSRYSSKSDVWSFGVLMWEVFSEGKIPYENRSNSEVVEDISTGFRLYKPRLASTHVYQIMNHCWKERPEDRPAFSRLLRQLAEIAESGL
Assay: ITK degradation HiBiT assay
Type: cell-based
Set-up: expressed in transfected cells; host or cells: Molt4 (ATCC CRL-1552), monoclonal clone 1C10, engineered to carry the HiBiT tag
Details: 4 hrs; for DC50: C-terminal HiBiT-tagged Molt4 cells; for Dmax: MOLT-4, C-terminal HiBiT-tagged Molt4 cells
Description: Itk Degradation Hibit Assay
Compounds provided herein were assayed in vitro with ITK HiBit cell lines. Compound dilution series (11-point, 5 fold dilutions in DMSO, columns 2-12 with replicate in rows A/B, C/D, E/F, G,H at 2000× the final required concentrations were prepared in 96 well plates (Falcon, cat. no. 353077). Column 1, rows A-H were control DMSO. The 2000× solutions ranged from 2 mM to 1.024 nM (final assay concentration range 1 μM to […]). The 2000× solutions were added to cells in […], for a final DMSO concentration of 0.5% and final assay compound concentration of 1×. For the cells, C-terminal HiBiT-tagged Molt4 cells (ATCC CRL-1552, monoclonal cell line clone 1C10) were plated at 1×10^6 cells/mL, 100 μL/well ([…]) in complete RPMI (10% FBS, 1% L-glutamine). The cells were incubated with compound 10 and compound 17 for 4 hrs at […]/6% CO2.
Following incubation, 100 μL of complete Nano-Glo HiBiT Lytic Detection Reagent (Nano-Glo HiBiT Lytic Buffer with 1:50 Nano-Glo HiBiT Lytic Substrate and 1:100 LgBiT Protein; Promega cat. no. N3040) was added. Cells were further incubated for 10 min at room temperature (RT). Luminescence units (LU) were read on an EnVision plate reader (Perkin Elmer, 0.1 sec per well). Percent ITK remaining per sample was calculated as follows: […]
Using Graphpad Prism, % ITK remaining values were plotted as a function of compound concentration. To determine DC50 and Dmax values, resulting curves were fit to the Prism curve-fitting equation “log(inhibitor) vs response—Variable slope (four parameters)” (reported best fit value IC50 used as DC50). ITK was measured with antibody-based MSD (Meso-Scale Discovery) assays shown below.

| SMILES | DC50 [nM] | Dmax [%] |
| --- | --- | --- |
| CN(C(=O)C1CCN(CC2CCN(c3ccc(C4CCC(=O)NC4=O)cn3)CC2)CC1)c1ccc2cc(-c3n[nH]c4c3C[C@@H]3C(F)(F)[C@]3(C)C4)[nH]c2c1 (stereo partly drawn) [Compound 74, N-(2-((4aS,5aR)-5,5-difluoro-5a-methyl-1,4,4a,5,5a,6-hexahydrocyclopropa[f]indazol-3-yl)-1H-indol-6-yl)-1-((1-(5-(2,6-dioxopiperidin-3-yl)pyridin-2-yl)piperidin-4-yl)methyl)-N-methylpiperidine-4-carboxamide] | 10.5 | – |
| CC1(C)CCc2c(-c3cc4ccc(C(=O)N5CCC(CN6CCCc7cc(C8CCC(=O)NC8=O)ccc76)CC5)cc4[nH]3)n[nH]c2C1 (centres unmarked) [Compound 199] | – | 52 |
| C[C@@]12Cc3[nH]nc(C(=O)Nc4cnn([C@@H]5CCN(C[C@H]6CCN(c7ccc(C8CCC(=O)NC8=O)cc7)C6)C[C@H]5F)c4)c3C[C@@H]1C2(F)F (stereo partly drawn) [Compound 99, (4aS,5aR)-N-(1-((3R,4R)-1-(((3R)-1-(4-(2,6-dioxopiperidin-3-yl)phenyl)pyrrolidin-3-yl)methyl)-3-fluoropiperidin-4-yl)-1H-pyrazol-4-yl)-5,5-difluoro-5a-methyl-1,4,4a,5,5a,6-hexahydrocyclopropa[f]indazole-3-carboxamide] | 3.7 | 85 |
| C[C@@]12Cc3[nH]nc(C(=O)Nc4cnn(C5CCN(CC6CCN(c7ccc(C8CCC(=O)NC8=O)cn7)CC6)CC5)c4)c3C[C@@H]1C2(F)F (mixture of isomers) [Compound 114, (4aS,5aR)-N-(1-{1-[(1-{5-[(3RS)-2,6-dioxopiperidin-3-yl]pyridin-2-yl}piperidin-4-yl)methyl]piperidin-4-yl}-1H-pyrazol-4-yl)-5,5-difluoro-5a-methyl-1H,4H,4aH,5H,5aH,6H-cyclopropa[f]indazole-3-carboxamide] | 0.002 | 87 |
| C[C@@]12Cc3[nH]nc(C(=O)Nc4ccc(C5CCN(CC6CCN(c7ccc(C8CCC(=O)NC8=O)cn7)CC6)CC5)nc4)c3C[C@@H]1C2(F)F (stereo partly drawn) [Compound 111, (4aS,5aR)-N-(6-(1-((1-(5-(2,6-dioxopiperidin-3-yl)pyridin-2-yl)piperidin-4-yl)methyl)piperidin-4-yl)pyridin-3-yl)-5,5-difluoro-5a-methyl-1,4,4a,5,5a,6-hexahydrocyclopropa[f]indazole-3-carboxamide] | 1.2 | 90 |
| CC1(C)CCc2c(-c3cc4cc(F)c(C(=O)N5CCN(CC6CCN(c7ccc(C8CCC(=O)NC8=O)cn7)CC6)CC5)cc4[nH]3)n[nH]c2C1 (centres unmarked) [Compound 136, 3-(6-(4-((4-(2-(6,6-dimethyl-4,5,6,7-tetrahydro-1H-indazol-3-yl)-5-fluoro-1H-indole-6-carbonyl)piperazin-1-yl)methyl)piperidin-1-yl)pyridin-3-yl)piperidine-2,6-dione] | 0.45 | 80 |
| CN(CC1CCN(C(=O)c2ccc3cc(-c4n[nH]c5c4CCC(C)(C)C5)[nH]c3c2)CC1)C1CCN(c2ccc(C3CCC(=O)NC3=O)cn2)CC1 (centres unmarked) [Compound 63, 3-(6-(4-(((1-(2-(6,6-dimethyl-4,5,6,7-tetrahydro-1H-indazol-3-yl)-1H-indole-6-carbonyl)piperidin-4-yl)methyl)(methyl)amino)piperidin-1-yl)pyridin-3-yl)piperidine-2,6-dione] | 0.003 | 80 |
| C[C@@]12Cc3[nH]nc(C(=O)Nc4cnn(C5CCC(CN6CCc7cc(C8CCC(=O)NC8=O)ccc7C6)CC5)c4)c3C[C@@H]1C2(F)F (mixture of isomers) [Compound 123, (4aS,5aR)-5,5-difluoro-5a-methyl-N-{1-[(lsr,4sr)-4-({6-[(3RS)-2,6-dioxopiperidin-3-yl]-1,2,3,4-tetrahydroisoquinolin-2-yl}methyl)cyclohexyl]-1H-pyrazol-4-yl}-1H,4H,4aH,5H,5aH,6H-cyclopropa[f]indazole-3-carboxamide] | 63.1 | 63 |
